According to ChEMBL document CHEMBL4725430, “Discovery of Zika Virus NS2B/NS3 Inhibitors That Prevent Mice from Life-Threatening Infection and Brain Damage” (ACS Med Chem Lett, 2020):
Calls of active or inactive are those of the source. The rule behind the calls is not given here.

Assays:
[1] = Cytotoxicity against human HepG2 cells assessed as cell viability at 10 uM measured after 4 days by CellTiter-Glo luminescent cell viability assay relative to control; format: cell-based; conditions: time 4 day, read-out: Activity
Zika virus [2] = test: Antiviral activity against Zika virus 976 Uganda infected in human HepG2 cells assessed as protection against viral infection by measuring cell survival at 10 uM measured after 4 days by CellTiter-Glo luminescent cell viability assay relative to control; format: functional; conditions: HepG2, 96 h, time 4 day
[3] = Inhibition of N-terminal thrombin cleavage fused His-tagged Zika virus ARD41644 NS2B Arg95Ala mutant (49 to 95 residues)/NS3 Arg29Gly mutant (1 to 170 residues) protease expressed in Escherichia coli BL21pLysS using Bz-nKRR-MCA peptide as substrate by FRET assay
Zika virus [4] = test: Antiviral activity against Zika virus 976 Uganda infected in human HepG2 cells assessed as inhibition of viral infection measured after 4 days by CellTiter-Glo luminescent cell viability assay; format: functional, organism-based; conditions: HepG2, 96 h
Huh-7 = test: Cytotoxicity against human Huh-7 cells; format: cell-based
[5] = Non- competitive inhibition of N-terminal thrombin cleavage fused His-tagged Zika virus ARD41644 NS2B Arg95Ala mutant (49 to 95 residues)/NS3 Arg29Gly mutant (1 to 170 residues) protease expressed in Escherichia coli BL21pLysS using varying levels Bz-nKRR-MCA as substrate by Lineweaver-Burk double reciprocal plot analysis
Zika virus [6] = test: Antiviral activity against Zika virus infected in 6 days old suckling ICR mouse assessed as reduction in brain damage at 1 mg/kg, ip administered at day 1, 3 and 5 post-infection by hematoxylin and eosin staining based analysis; format: functional, organism-based
Zika virus [7] = test: Antiviral activity against Zika virus infected in 6 days old suckling ICR mouse assessed as improvement in clinical scores at 1 mg/kg, ip administered at day 1, 3 and 5 post-infection and monitored daily for 6 days post-infection; format: functional, organism-based
Zika virus [8] = test: Antiviral activity against Zika virus infected in 6 days old suckling ICR mouse assessed as inhibition of viral replication in brain at 1 mg/kg, ip administered at day 1, 3 and 5 post-infection by immunohistochemical staining; format: functional, organism-based
Zika virus [9] = test: Antiviral activity against Zika virus infected in 6 days old suckling ICR mouse assessed as reduction in virus titer in brain at 1 mg/kg, ip administered at day 1, 3 and 5 post-infection; format: functional, organism-based
[10] = Binding affinity to N-terminal thrombin cleavage fused His-tagged Zika virus ARD41644 NS2B Arg95Ala mutant (49 to 95 residues)/NS3 Arg29Gly mutant (1 to 170 residues) protease expressed in Escherichia coli BL21pLysS by MST method
[11] = Inhibition of DENV2 NS2B-NS3 protease using Bz-nKRR-MCA as substrate by FRET assay; design: species or system dengue virus type 2
Zika virus [12] = test: Antiviral activity against Zika virus infected in 6 days old suckling ICR mouse assessed as improvement in body weight at 1 mg/kg, ip administered at day 1, 3 and 5 post-infection and monitored daily for 6 days post-infection; format: functional, organism-based
Zika virus [13] = test: Antiviral activity against Zika virus infected in 6 days old suckling ICR mouse assessed as reduction in monocyte infiltration in brain at 1 mg/kg, ip administered at day 1, 3 and 5 post-infection by immunohistochemistry analysis; format: functional, organism-based
Zika virus [14] = test: Antiviral activity against Zika virus MR766 infected in human Huh-7 cells assessed as reduction in viral RNA synthesis incubated for 3 days by qRT-PCR analysis; format: functional, organism-based
Zika virus [15] = test: Antiviral activity against Zika virus MR766 infected in human Huh-7 cells assessed as reduction in viral NS2B protein synthesis incubated for 3 days by Western blot analysis; format: functional, organism-based; conditions: dose microM 1-20, time 3.0 day
Zika virus [16] = test: Antiviral activity against Zika virus MR766 infected in human Huh-7 cells assessed as reduction in viral infection; format: functional, organism-based; conditions: MR766, Huh-7
Zika virus [17] = test: Antiviral activity against Zika virus infected in 6 days old suckling ICR mouse assessed as improvement in survival rate at 1 mg/kg, ip administered at day 1, 3 and 5 post-infection and monitored daily for 6 days post-infection; format: functional, organism-based
[18] = Cytotoxicity against human HepG2 cells assessed as cell viability at 100 uM measured after 4 days by CellTiter-Glo luminescent cell viability assay relative to control; format: cell-based; conditions: time 4 day, read-out: Activity

Row | Structure (SMILES) | viability at 96 h, 10 µM [1] | survival at 10 µM (Zika virus [2]) | other results
1 | COC(=O)c1[nH]c2ccc(Cl)cc2c1Cc1cc(OC)c(O)c(OC)c1 | 100% | 23% | –
2 | CCOC(=O)c1[nH]c2ccc(OC)cc2c1C(=O)c1cc(OC)c(O)c(OC)c1 | 100% | 47% | –
3 | CCOC(=O)c1[nH]c2ccc(O)cc2c1C(=O)c1cc(OC)c(O)c(OC)c1 | 94% | 0% | –
4 | COC(=O)c1[nH]c2ccc(Br)cc2c1C(=O)c1cc(OC)c(O)c(OC)c1 | 100% | 22% | –
5 | COC(=O)c1[nH]c2ccc(Cl)cc2c1Cc1cc(OC)cc(OC)c1 | 100% | 16% | IC50 [3]: 770 µM
6 | COc1cc(C(=O)c2c(-c3ccccc3)[nH]c3ccc(Br)cc23)cc(OC)c1O | 100% | 23% | –
7 | COC(=O)c1[nH]c2ccc(OC)cc2c1C(=O)c1cc(OC)c(O)c(OC)c1 | 100% | 49% | –
8 | CCOC(=O)c1[nH]c2ccccc2c1Cc1cc(OC)c(O)c(OC)c1 | 100% | 0% | –
9 | COC(=O)c1[nH]c2ccc(Cl)cc2c1C(=O)c1cc(OC)c(O)c(OC)c1 | 100% | 47% | IC50 [3]: 158 µM; IC50 (Zika virus [4]): 13.7 µM; Activity (Huh-7): Non-Toxic; Ki [5]: 280 µM; Activity (Zika virus [6]): Active; Activity (Zika virus [7]): Active; Activity (Zika virus [8]): Active; Activity (Zika virus [9]): Active; Kd [10]: > 1000 µM; IC50 [11]: 112 µM; Activity (Zika virus [12]): Active; Activity (Zika virus [13]): Active; IC50 (Zika virus [14]; MR766, Huh-7, 72 h): 13.9 µM; inhibition (Zika virus [14]; time 3.0 day): Dose-dependent effect; Activity (Zika virus [15]): Dose-dependent effect; EC50 (Zika virus [16]): 13.9 µM; Activity (Zika virus [17]): Active
10 | CCOC(=O)c1[nH]c2ccc(Br)cc2c1C(=O)c1cc(OC)c(O)c(OC)c1 | 100% | 66% | IC50 [3]: 33 µM; IC50 (Zika virus [4]): 15.8 µM; Ki [5]: 48 µM; Kd [10]: 300 µM; EC50 (Zika virus [16]): 16.2 µM
11 | COC(=O)c1[nH]c2ccc(Br)cc2c1Cc1cc(OC)c(O)c(OC)c1 | 100% | 2% | –
12 | CCOC(=O)c1[nH]c2ccccc2c1C(=O)c1cc(OC)c(O)c(OC)c1 | 100% | 0% | –
13 | CCOC(=O)c1[nH]c2ccc(Br)cc2c1Cc1cc(OC)c(O)c(OC)c1 | 100% | 20% | –
14 | CCOC(=O)c1[nH]c2ccc(OC)cc2c1Cc1cc(OC)c(O)c(OC)c1 | 100% | 28% | –
15 | NC(=O)c1ncn([C@@H]2O[C@H](CO)[C@@H](O)[C@H]2O)n1 [RIBAVIRIN] | – | – | viability at 96 h, 100 µM [18]: 100%
